Format in all cases: cell-based
Assay [1] concerns the target T1, RhoprOctβ2-R (Rhodnius prolixus, UniProt A0A291L8J3).
T1 construct: full ORF (447 amino acids; GenBank MF377526) transiently expressed in HEK293/CNG cells
T1 sequence (A0A291L8J3 1-447): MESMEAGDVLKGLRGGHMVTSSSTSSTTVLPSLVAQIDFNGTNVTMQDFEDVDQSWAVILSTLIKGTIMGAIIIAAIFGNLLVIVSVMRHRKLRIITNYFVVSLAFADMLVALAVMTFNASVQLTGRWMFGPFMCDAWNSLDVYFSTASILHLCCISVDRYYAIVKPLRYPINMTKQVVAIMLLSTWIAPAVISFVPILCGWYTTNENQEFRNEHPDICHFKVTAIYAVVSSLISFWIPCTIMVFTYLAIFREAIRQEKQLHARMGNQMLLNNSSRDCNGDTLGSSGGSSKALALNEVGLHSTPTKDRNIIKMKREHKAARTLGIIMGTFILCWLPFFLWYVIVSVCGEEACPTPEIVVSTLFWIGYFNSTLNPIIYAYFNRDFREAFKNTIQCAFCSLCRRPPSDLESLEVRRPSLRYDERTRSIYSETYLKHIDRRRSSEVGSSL
The experiment in a line: aequorin bioluminescence Ca2+ assay in transfected HEK293/CNG cells, dose-response (full agonist).

Assay [2] addresses T2, RhoprTyr1-R (Rhodnius prolixus, UniProt A0A291L8I9).
T2 construct: full ORF (455 amino acids; GenBank MF377527) transiently expressed in HEK293/CNG cells
T2 sequence (A0A291L8I9 1-455): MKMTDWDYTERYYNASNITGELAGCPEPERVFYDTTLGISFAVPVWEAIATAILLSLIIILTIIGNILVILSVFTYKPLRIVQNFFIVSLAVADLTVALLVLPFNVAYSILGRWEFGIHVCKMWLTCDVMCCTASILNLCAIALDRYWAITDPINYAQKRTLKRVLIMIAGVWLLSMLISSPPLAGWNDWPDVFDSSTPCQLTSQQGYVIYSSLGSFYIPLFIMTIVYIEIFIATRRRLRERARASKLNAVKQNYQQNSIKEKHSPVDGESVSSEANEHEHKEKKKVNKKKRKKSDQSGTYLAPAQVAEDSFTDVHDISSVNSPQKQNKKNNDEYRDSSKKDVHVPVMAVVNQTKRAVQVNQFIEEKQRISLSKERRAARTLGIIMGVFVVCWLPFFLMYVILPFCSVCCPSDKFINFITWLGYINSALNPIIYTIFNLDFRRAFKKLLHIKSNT
The experiment in a line: aequorin bioluminescence Ca2+ assay in transfected HEK293/CNG cells, dose-response (agonist).

The target of assay [3] is T1, RhoprOctβ2-R. Nature of the assay: aequorin bioluminescence Ca2+ assay in transfected HEK293/CNG cells, dose-response (partial agonist).
Assay [4] concerns the target T1, RhoprOctβ2-R. Nature of the assay: antagonism of octopamine-induced aequorin luminescence in HEK293/CNG cells, single dose […].
The target in assay [5] is T1, RhoprOctβ2-R. The experiment in a line: partial antagonism of octopamine-induced aequorin luminescence in HEK293/CNG cells, single dose […].
Assay [6] addresses T2, RhoprTyr1-R. The experiment in a line: antagonism of tyramine-induced aequorin luminescence in HEK293/CNG cells, single dose […].

Regarding `NCC(O)c1ccc(O)cc1` (stereo not shown) [OA, octopamine], the results for the EC50 in assay [1] and in assay [2] were 0.367 µM and 6.88 µM, respectively. As to `NCCc1ccc(O)cc1` [TA, tyramine], the concentration giving a half-maximal response (EC50) in assay [3] came to 3.85 µM; in assay [2] it was 0.0517 µM. As for `CN(C)Cc1c[nH]c2ccccc12` [gramine], the “antagonism of octopamine-induced aequorin luminescence in HEK293/CNG cells, sing” value in assay [4] is “Phentolamine and gramine significantly reduced octopamine-induced receptor activation”. For `CCN(CC)CCNC(=O)c1cc(Cl)c(N)cc1OC` [metoclopramide], the “partial antagonism of octopamine-induced aequorin luminescence in HEK293/CNG cel” value in assay [5] is reported as “RhoprOctβ2-R was antagonized by phentolamine > gramine > metoclopramide”. Turning to `CC(COc1ccccc1)N(CCCl)Cc1ccccc1` (stereo not shown) [phenoxybenzamine], the “antagonism of tyramine-induced aequorin luminescence in HEK293/CNG cells, single” value in assay [6] is “notably yohimbine and phenoxybenzamine, reduced the tyramine-induced activation of the RhoprTyr1-R”.

By EC50 is commonly meant the concentration giving half of the maximal effect. High values mean a less potent agent, low ones a more potent agent.

(Values after article PMC5623054, “Cloning and Functional Characterization of Octβ2-Receptor and Tyr1-Receptor in the Chagas Disease Vector, Rhodnius prolixus” (Frontiers in Physiology, 2017).)
